Holding throughout (format): in vivo
Assay [1] has as its system Twospotted spider mites (Tetranychus urticae Koch). Description: Mite/insect screen, SM. Conditions: Tetranychus urticae, percent mortality, SAW, read-out: SM RESULTS %; for mortality at 200 ppm: SM & MA RATE 200 PPM; for mortality at 400 ppm: SM & MA RATE 400 PPM. Here is the method: (§1) The compounds of Examples 1-295 were tested for miticidal and insecticidal activity in the following mite/insect screen.
(§2) Each test compound was formulated by dissolving the compound in acetone/alcohol (50:50) mixture containing 23 g of "TOXIMUL R" (sulfonate/nonionic emulsifier blend) and 13 g of "TOXIMUL S" (sulfonate/nonionic emulsifier blend) per liter. These mixtures were then diluted with water to give the indicated concentrations.
(§3) Other plants in the same treatment pot were left uninfested. The leaves were then sprayed with 5 ml of test solution using a DeVilbiss atomizing sprayer at 10 psi. Both surfaces of the leaves were covered until runoff, and then allowed to dry for one hour. Two uninfested leaves were then excised and placed into a Petri dish containing southern armyworm (Spodopetra eridania Cramer).
(§4) After standard exposure periods, percent mortality was evaluated. […]

In assay [2] the test system is melon aphids (Aphis gossypii Glover). Description: Mite/insect screen, MA. Conditions: Aphis gossypii, percent mortality, SAW, read-out: MA RESULTS %; for mortality at 200 ppm: SM & MA RATE 200 PPM; for mortality at 400 ppm: SM & MA RATE 400 PPM. The procedure: as §1, §2, §3, §4
A further assay has as its system corn rootworm. Description: Mite/insect screen, CRW. Conditions: percent mortality, read-out: CRW RESULTS %; for mortality at 12 ppm: CRW RATE 12.00 PPM; for mortality at 24 ppm: CRW RATE 24.00 PPM. The procedure:
as §1, §2, §4

For assay [3], the system named is Puccinia recondita tritici (leaf rust). The experiment in a line: Test 1 greenhouse foliar spray screen, leaf rust on wheat. The following applies: disease control rating, foliar spray on wheat, 400 ppm (+++ at 100 ppm).
Assay [4] deals with Pseudoperonospora cubensis (downy mildew). The experiment in a line: Test 1 greenhouse foliar spray screen, downy mildew on squash. Conditions: disease control rating, foliar spray on squash, 400 ppm (+++ at 100 ppm).
In assay [5] the test system is southern armyworm (Spodopetra eridania Cramer). Description: Mite/insect screen, SAW. Conditions: Spodoptera eridania, percent mortality, SAW, read-out: SAW RESULTS %; for mortality at 200 ppm: SM & MA RATE 200 PPM; for mortality at 400 ppm: SM & MA RATE 400 PPM. The procedure:
as §1, §2, §3, §4

Assay [6] has as its system Erysiphe graminis tritici (powdery mildew). Description: Test 1 greenhouse foliar spray screen, powdery mildew on wheat. Conditions: disease control rating, foliar spray on wheat, 400 ppm (+++ at 100 ppm).
Assay [7] has as its system Pyricularia oryzae (rice blast). The experiment in a line: whole plant or invertebrate. The following applies: disease control rating, foliar spray on rice, 400 ppm (+++ at 100 ppm).
The subject of assay [8] is Botrytis cinerea (gray mold). The experiment in a line: Test 1 greenhouse foliar spray screen, gray mold on grape berries. Conditions: disease control rating, spray on grape berries, 400 ppm (+++ at 100 ppm).

With `COc1ccccc1CCNc1ccnc2cc(Cl)ccc12` [Example 100, 7-chloro-N-[2-(2-methoxyphenyl)ethyl]-4-quinolinamine], the mortality at 200 ppm in assay [1], in assay [2] and in assay [5] was 0% each time. Also, the mortality at 400 ppm in assay [1], in assay [2] and in assay [5] was 0% throughout. Besides, the mortality at 12 ppm with corn rootworm worked out at 0%. Moreover, the mortality at 24 ppm with corn rootworm worked out at 0%. The “LEAF RUST” value in assay [3] is given as “+ (20-89% control at 400 ppm)”. In addition, the “DOWN MDEW” value in assay [4] is reported as “+ (20-89% control at 400 ppm)”. For the same compound, the “POWD MDEW” value in assay [6] is on record as “+ (20-89% control at 400 ppm)”. Further, the “RICE BLAST” value in assay [7] is reported as “+ (20-89% control at 400 ppm)”. The “GRAY MOLD” value in assay [8] is listed as “- (0-19% control at 400 ppm)”.
For `Cc1cc(NCCc2ccc(Cl)cc2)c2ccccc2n1` [Example 102, N-[2-(4-chlorophenyl)ethyl]-2-methyl-4-quinolinamine], in [1], the mortality at 200 ppm worked out at 0% and the mortality at 400 ppm was 0%. For the same compound, in [2], the mortality at 200 ppm is 0% and the mortality at 400 ppm is 0%. Moreover, in the assay with corn rootworm, the mortality at 12 ppm came out at 0% and the mortality at 24 ppm was 0%. The “LEAF RUST” value in [3] was “- (0-19% control at 400 ppm)”. Besides, the “DOWN MDEW” value in assay [4] is “- (0-19% control at 400 ppm)”. Moreover, in assay [5], the mortality at 200 ppm came out at 0% and the mortality at 400 ppm turned out to be 50%. Also, the “POWD MDEW” value in [6] is on record as “+ (20-89% control at 400 ppm)”. Further, the “RICE BLAST” value in assay [7] is “+ (20-89% control at 400 ppm)”. In addition, the “GRAY MOLD” value in assay [8] is on record as “- (0-19% control at 400 ppm)”.
Turning to `Cc1ccc(C)c2c(NCCc3ccc(Cl)cc3)ccnc12` [Example 109, N-[2-(4-chlorophenyl)ethyl]-5,8-dimethyl-4-quinolinamine], the mortality at 400 ppm in [1], in [2] and in assay [5] was 0% throughout. Besides, the mortality at 24 ppm with corn rootworm is 0%. Also, the “LEAF RUST” value in assay [3] is given as “++ (90-100% control at 400 ppm)”. In addition, the “DOWN MDEW” value in assay [4] was “+++ (90-100% control at 100 ppm)”. Further, the “POWD MDEW” value in assay [6] was “+ (20-89% control at 400 ppm)”. Besides, the “RICE BLAST” value in assay [7] was “+ (20-89% control at 400 ppm)”. The “GRAY MOLD” value in assay [8] is given as “- (0-19% control at 400 ppm)”.
For `Nc1cccc2c(NCCc3ccc(Cl)cc3)ccnc12` [Example 110, N(4)-[2-(4-chlorophenyl)ethyl]-4,8-quinolinediamine], the mortality at 200 ppm in [1], in assay [2] and in assay [5] was 0% throughout. Besides, the mortality at 400 ppm in assay [1], in assay [2] and in assay [5] was 0% in each case. In the assay with corn rootworm, the mortality at 12 ppm was 0%. Moreover, in the assay on corn rootworm, the mortality at 24 ppm was found to be 0%. Further, the “LEAF RUST” value in [3] is recorded as “++ (90-100% control at 400 ppm)”. Moreover, in assay [4], the “DOWN MDEW” value is “++ (90-100% control at 400 ppm)”. Also, in [6], the “POWD MDEW” value was “- (0-19% control at 400 ppm)”. Besides, the “RICE BLAST” value in [7] is given as “+ (20-89% control at 400 ppm)”. In addition, the “GRAY MOLD” value in assay [8] is on record as “- (0-19% control at 400 ppm)”.
Regarding `Clc1ccccc1CCNc1ccnc2c(Cl)cccc12` [Example 115, N-[2-(2-chlorophenyl)ethyl]-8-chloro-4-quinolinamine], in assay [1], the mortality at 200 ppm was determined as 0% and the mortality at 400 ppm came out at 0%. Besides, in assay [2], the mortality at 200 ppm amounted to 0% and the mortality at 400 ppm turned out to be 0%. Besides, in the assay on corn rootworm, the mortality at 12 ppm is 0% and the mortality at 24 ppm is 0%. The “LEAF RUST” value in assay [3] is “- (0-19% control at 400 ppm)”. Further, in assay [4], the “DOWN MDEW” value is on record as “+ (20-89% control at 400 ppm)”. In assay [5], the mortality at 200 ppm is 0% and the mortality at 400 ppm is 0%. The “POWD MDEW” value in [6] is reported as “- (0-19% control at 400 ppm)”. Moreover, in assay [7], the “RICE BLAST” value is “+ (20-89% control at 400 ppm)”. In assay [8], the “GRAY MOLD” value was “- (0-19% control at 400 ppm)”.
For the compound `CC(=O)N(CCc1ccc(Cl)cc1)c1ccnc2ccc(F)cc12` [Example 121, N-[2-(4-chlorophenyl)ethyl]-N-(6-fluoro-4-quinolinyl)acetamide], in assay [1], the mortality at 200 ppm is 0% and the mortality at 400 ppm came out at 0%. Further, in assay [2], the mortality at 200 ppm is 0% and the mortality at 400 ppm is 0%. Moreover, in the assay with corn rootworm, the mortality at 12 ppm was 0% and the mortality at 24 ppm worked out at 0%. For the same compound, the “LEAF RUST” value in assay [3] is “++ (90-100% control at 400 ppm)”. For the same compound, the “DOWN MDEW” value in assay [4] is “+ (20-89% control at 400 ppm)”. In assay [5], the mortality at 200 ppm amounted to 0% and the mortality at 400 ppm is 0%. In addition, in [6], the “POWD MDEW” value is on record as “+ (20-89% control at 400 ppm)”. In addition, the “RICE BLAST” value in assay [7] is listed as “- (0-19% control at 400 ppm)”. The “GRAY MOLD” value in [8] is “- (0-19% control at 400 ppm)”.
Take `COc1ccc(CCN(C(C)=O)c2ccnc3cc(Cl)ccc23)cc1` [Example 125, N-(7-chloro-4-quinolinyl)-N-[2-(4-methoxyphenyl)ethyl]acetamide]: in assay [1], the mortality at 200 ppm stood at 0% and the mortality at 400 ppm came out at 0%. In addition, in assay [2], the mortality at 200 ppm came out at 0% and the mortality at 400 ppm is 0%. Besides, in the assay with corn rootworm, the mortality at 12 ppm came to 0% and the mortality at 24 ppm worked out at 0%. In addition, the “LEAF RUST” value in [3] is on record as “- (0-19% control at 400 ppm)”. Besides, the “DOWN MDEW” value in assay [4] was “- (0-19% control at 400 ppm)”. For the same compound, in [5], the mortality at 200 ppm came to 0% and the mortality at 400 ppm is 0%. Further, the “POWD MDEW” value in [6] is “+ (20-89% control at 400 ppm)”. For the same compound, the “RICE BLAST” value in [7] was “- (0-19% control at 400 ppm)”. Besides, the “GRAY MOLD” value in [8] was “- (0-19% control at 400 ppm)”.
Regarding `CC(=O)N(CCc1ccc(Cl)cc1Cl)c1ccnc2cc(C(F)(F)F)ccc12` [Example 127, N-[2-(2,4-dichlorophenyl)ethyl]-N-[7-(trifluoromethyl)-4-quinolinyl]acetamide], in assay [1], the mortality at 200 ppm turned out to be 0% and the mortality at 400 ppm was 0%. In assay [2], the mortality at 200 ppm was 0% and the mortality at 400 ppm was determined as 0%. Further, in the assay on corn rootworm, the mortality at 12 ppm turned out to be 0% and the mortality at 24 ppm is 0%. For the same compound, in assay [3], the “LEAF RUST” value was “+ (20-89% control at 400 ppm)”. In addition, in [4], the “DOWN MDEW” value is on record as “+ (20-89% control at 400 ppm)”. In addition, in [5], the mortality at 200 ppm is 0% and the mortality at 400 ppm stood at 0%. In addition, the “POWD MDEW” value in assay [6] is “+ (20-89% control at 400 ppm)”. Besides, the “RICE BLAST” value in assay [7] was “+ (20-89% control at 400 ppm)”. Moreover, the “GRAY MOLD” value in assay [8] was “- (0-19% control at 400 ppm)”.
As for `CC(=O)N(CCc1ccc(C(C)(C)C)cc1)c1ccnc2c(F)cccc12` [Example 128, N-[4-(t-butyl)phenyl]ethyl-N-(8-fluoro-4-quinolinyl)acetamide], the mortality at 200 ppm in assay [1], in [2] and in assay [5] was 0% throughout. The mortality at 400 ppm in assay [1], in [2] and in assay [5] was 0% throughout. In addition, the mortality at 12 ppm in the assay with corn rootworm is 0%. The mortality at 24 ppm in the assay on corn rootworm was determined as 0%. For the same compound, the “LEAF RUST” value in assay [3] is listed as “+ (20-89% control at 400 ppm)”. Moreover, in assay [4], the “DOWN MDEW” value was “- (0-19% control at 400 ppm)”. Further, in assay [6], the “POWD MDEW” value was “- (0-19% control at 400 ppm)”. Moreover, in assay [7], the “RICE BLAST” value is reported as “+ (20-89% control at 400 ppm)”. Besides, the “GRAY MOLD” value in [8] is listed as “- (0-19% control at 400 ppm)”.
Regarding `CC(=O)N(CCc1ccc(-c2ccccc2)cc1)c1ccnc2c(F)cccc12` [Example 130, N-[2-(1,1'-biphenyl)-4-ylethyl]-N-(8-fluoro-4-quinolinyl)acetamide], in [1], the mortality at 200 ppm was 0% and the mortality at 400 ppm came to 0%. In assay [2], the mortality at 200 ppm is 0% and the mortality at 400 ppm came out at 0%. Also, in the assay on corn rootworm, the mortality at 12 ppm was determined as 0% and the mortality at 24 ppm is 0%. Further, the “LEAF RUST” value in assay [3] was “- (0-19% control at 400 ppm)”. In addition, in [4], the “DOWN MDEW” value is “- (0-19% control at 400 ppm)”. Besides, in assay [5], the mortality at 200 ppm is 0% and the mortality at 400 ppm was 0%. Moreover, the “POWD MDEW” value in assay [6] is “- (0-19% control at 400 ppm)”. For the same compound, the “RICE BLAST” value in assay [7] was “- (0-19% control at 400 ppm)”. Further, in assay [8], the “GRAY MOLD” value is “- (0-19% control at 400 ppm)”.

For the origin of these results see patent publication EP0326331B1, “Substituted quinolines and cinnolines” (Dow AgroSciences LLC, priority 1988, dated 1989).
